The record followed here is US20120225862A1, “HETEROARYL BENZAMIDES, COMPOSITIONS AND METHODS OF USE” (AUCKLAND UNIVSERVICES LIMITED, priority 2009, published 2012).

A word on the IC50: it is the concentration needed to halve the response being measured. Lower therefore signals greater potency.

The test system of experiment [1] is RCC4/VHL. Nature of the experiment: XTT IC50 assay, selectivity RCC4 versus RCC4 with VHL-reintroduced. It is filed as cell-based, human. To be noted: selectivity ratio of XTT IC50 values, RCC4 vs RCC4/VHL. Here is the method: (§1) RCC4 parental and RCC4 with VHL-reintroduced (RCC4/VHL), SN12C and SN12C-CSCG-VHL shRNA were maintained in DMEM supplemented with 10% FCS.
(§2) IC50 values for compounds were determined by XTT assay. For 2,3-bis[2-methoxy-4-nitro-5-sulfophenyl]-2H-tetrazolium-5-carboxanilide inner salt (XTT) assays, five thousand cells were plated in 96-well plates. The next day, vehicle or drug was added to each well and incubated for four days. Media was aspirated and phenol red-free medium with 0.3 mg/mL XTT and 2.65 ug/mL N-methyl dibenzopyrazine methyl sulfate was added. This was incubated at 37° C. for 1-2 hours and absorbance was read at 450 nm. IC50 values for each compound were calculated using linear interpolation.
(§3) For 2,3-bis[2-methoxy-4-nitro-5-sulfophenyl]-2H-tetrazolium-5-carboxanilide (XTT) assays, five thousand cells were plated in 96-well plates. The next day, vehicle (DMSO) or drug was added by serial dilution. Four days later, media were aspirated, XTT solution (0.3 mg/ml of XTT (Sigma), 2.65 mg/ml N-methyl dibenxopyrazine methyl sulfate (Simga) in phenol red-free media) was added, and the plates were incubated at 37° C. for 1-2 hours. Metabolism of XTT was quantified by measuring the absorbance at 450 nm. IC50s were calculated using linear interpolation. For clonogenic survival assays, three hundred cells were plated per 60 mm tissue culture dish. The cells were allowed to attach overnight and then treated with vehicle or drug for 14 days. Colonies were fixed and stained with crystal violet (0.1% crystal violet in 95% ethanol). All conditions were measured in triplicate and each experiment was done in duplicate or triplicate. To determine necrosis, cells were treated with drug for a given time point. Media and cells were collected, centrifugated, and resuspended in 0.4% trypan blue (Invitrogen). Live and dead cells were counted on a hematocytometer.

The test system of experiment [2] is RCC4. Nature of the experiment: XTT IC50 / viability assay, RCC4 cells. It is filed as cell-based, human. To be noted: Homo sapiens, RCC4, 96 h; XTT assay, four days. As for the experimental part:
as §1, §2, §3
In general terms: Formazan colour is commonly taken as a measure of viable cells.

Where only a bound is given, the exact number is not on record here.

Turning to `CC(C)(C)c1ccc(S(=O)(=O)NCc2ccc(C(=O)Nc3cnccc3C(F)(F)F)cc2)cc1` [Example 122, 4-({[(4-tert-Butylphenyl)sulfonyl]amino}methyl)-N-[4-(trifluoromethyl)-3-pyridinyl]benzamide], in experiment [1], the “Ratio (RCC4:RCC/VHL)” value is reported as “a (“a” reflects a ratio of RCC4/RCC-VHL+ ranging from 1 to 10)”. Moreover, the IC50 in experiment [2] was 1000 to 20000 nM.
As for `CN(C)C1Cc2ccc(S(=O)(=O)NCc3ccc(C(=O)Nc4cccnc4)cc3)cc2C1` (centres unmarked) [Example 75, 4-((2-(Dimethylamino)-2,3-dihydro-1H-indene-5-sulfonamido)methyl)-N-(pyridin-3-yl)benzamide], the “Ratio (RCC4:RCC/VHL)” value in experiment [1] is listed as “c (“c” reflects a ratio of >100)”. The IC50 in experiment [2] was less than 1000 nM.
The corresponding values for `Cc1cc(C)cc(COC(=O)NCc2ccc(C(=O)Nc3cccnc3)cc2)c1` [Compound A, reference compound] are “a (“a” reflects a ratio of RCC4/RCC-VHL+ ranging from 1 to 10)” and more than 20000 nM.
`C#Cc1ccc(S(=O)(=O)NCc2ccc(C(=O)Nc3cccnc3)cc2)cc1` [Example 95, 4-((4-Ethynylphenylsulfonamido)methyl)-N-(pyridin-3-yl)benzamide]: the “Ratio (RCC4:RCC/VHL)” value in experiment [1] is listed as “b (“b” reflects from 10 to 100)”. Besides, the IC50 in experiment [2] was in the range of 1000 to 20000 nM.
The corresponding values for `O=C(Nc1cccnc1)c1ccc(CNS(=O)(=O)c2cccc(F)c2)cc1` [Example 20, 4-((3-Fluorophenylsulfonamido)methyl)-N-(pyridin-3-yl)benzamide] are “b (“b” reflects from 10 to 100)” and less than 1000 nM.
In the case of `Cc1nc(-c2cccc(S(=O)(=O)NCc3ccc(C(=O)Nc4cccnc4)cc3)c2)no1` [Example 30, 4-[({[3-(5-Methyl-1,2,4-oxadiazol-3-yl)phenyl]sulfonyl}amino)methyl]-N-(3-pyridinyl)benzamide], the “Ratio (RCC4:RCC/VHL)” value in experiment [1] is on record as “c (“c” reflects a ratio of >100)”. The IC50 in experiment [2] was less than 1000 nM.
Take `O=C(Nc1cccnc1)c1ccc(CNS(=O)(=O)c2cccc(-c3ccccc3)c2)cc1` [Example 26, 4-{[([1,1′-Biphenyl]-3-ylsulfonyl)amino]methyl}-N-(3-pyridinyl)benzamide]: in experiment [1], the “Ratio (RCC4:RCC/VHL)” value is given as “b (“b” reflects from 10 to 100)”. For the same molecule, the IC50 in experiment [2] was 1000 to 20000 nM.
`Cc1nc(-c2ccc(S(=O)(=O)NCc3ccc(C(=O)Nc4cccnc4)cc3)cc2)cs1` [Example 59, 4-[({[4-(2-Methyl-1,3-thiazol-4-yl)phenyl]sulfonyl}amino)methyl]-N-(3-pyridinyl)benzamide]: the “Ratio (RCC4:RCC/VHL)” value in experiment [1] is reported as “b (“b” reflects from 10 to 100)”. This molecule also showed an IC50 in experiment [2] of 1000 to 20000 nM.
On to `O=C(Nc1cccnc1)c1ccc(CNS(=O)(=O)c2ccc(CCCN3CCOCC3)cc2)cc1` [Example 141, 4-{[({4-[3-(4-Morpholinyl)propyl]phenyl}sulfonyl)amino]methyl}-N-(3-pyridinyl)benzamide], for which the “Ratio (RCC4:RCC/VHL)” value in experiment [1] is recorded as “c (“c” reflects a ratio of >100)”. Also, in experiment [2], the IC50 was less than 1000 nM.
As to `COCC#Cc1ccc(S(=O)(=O)NCc2ccc(C(=O)Nc3cccnc3)cc2)cc1` [Example 98, 4-{[({4-[3-(Methyloxy)-1-propynyl]phenyl}sulfonyl)amino]methyl}-N-(3-pyridinyl)benzamide], the “Ratio (RCC4:RCC/VHL)” value in experiment [1] was “a (“a” reflects a ratio of RCC4/RCC-VHL+ ranging from 1 to 10)”. In experiment [2], this molecule returned an IC50 of 1000 to 20000 nM.
Turning to `Cc1ccc(S(=O)(=O)NCc2ccc(C(=O)Nc3cccnc3)cc2)cc1C` [Example 65, 4-((3,4-Dimethylphenylsulfonamido)methyl)-N-(pyridin-3-yl)benzamide], in experiment [1], the “Ratio (RCC4:RCC/VHL)” value is listed as “c (“c” reflects a ratio of >100)”. Besides, in experiment [2], the IC50 is less than 1000 nM.
`CN(C)CCNc1ccc(S(=O)(=O)NCc2ccc(C(=O)Nc3cccnc3)cc2)cc1` [Example 133, 4-({[(4-{[2-(Dimethylamino)ethyl]amino}phenyl)sulfonyl]amino}methyl)-N-(3-pyridinyl)benzamide]: the “Ratio (RCC4:RCC/VHL)” value in experiment [1] was “c (“c” reflects a ratio of >100)”. Further, the IC50 in experiment [2] is less than 1000 nM.
For the molecule `O=C(Nc1cccnc1)c1ccc(CNS(=O)(=O)c2ccc(CN3CCCC3)cc2)cc1` [Example 80, 4-[({[4-(1-Pyrrolidinylmethyl)phenyl]sulfonyl}amino)methyl]-N-(3-pyridinyl)-benzamide], in experiment [1], the “Ratio (RCC4:RCC/VHL)” value is recorded as “c (“c” reflects a ratio of >100)”. Also, in experiment [2], the IC50 is less than 1000 nM.
On to `O=C(Nc1cccnc1)c1ccc(CNS(=O)(=O)c2ccccc2Cl)cc1` [Example 12, 4-((2-Chlorophenylsulfonamido)methyl)-N-(pyridin-3-yl)benzamide], for which the “Ratio (RCC4:RCC/VHL)” value in experiment [1] is “a (“a” reflects a ratio of RCC4/RCC-VHL+ ranging from 1 to 10)”. For the same molecule, in experiment [2], the IC50 was 1000 to 20000 nM.
The corresponding values for `O=C(Nc1cccnc1)c1ccc(CNS(=O)(=O)c2ccccc2F)cc1` [Example 11, 4-((2-Fluorophenylsulfonamido)methyl)-N-(pyridin-3-yl)benzamide] are “a (“a” reflects a ratio of RCC4/RCC-VHL+ ranging from 1 to 10)” and 1000 to 20000 nM.
The corresponding values for `O=C(Nc1cccnc1)c1ccc(CNS(=O)(=O)c2ccccc2)cc1` [Example 2, 4-(Phenylsulfonamidomethyl)-N-(pyridin-3-yl)benzamide] are “a (“a” reflects a ratio of RCC4/RCC-VHL+ ranging from 1 to 10)” and 1000 to 20000 nM.
Regarding `O=C(Nc1cccnc1)c1ccc(CNS(=O)(=O)c2ccc(-n3cccn3)cc2)cc1` [Example 58, 4-[({[4-(1H-Pyrazol-1-yl)phenyl]sulfonyl}amino)methyl]-N-(3-pyridinyl)benzamide], the “Ratio (RCC4:RCC/VHL)” value in experiment [1] is “a (“a” reflects a ratio of RCC4/RCC-VHL+ ranging from 1 to 10)”. Moreover, the IC50 in experiment [2] fell in the range of 1000 to 20000 nM.
The corresponding values for `CC(C)(C)c1ccc(S(=O)(=O)NCc2ccc(C(=O)Nc3cccnc3Cl)cc2)cc1` [Example 113, 4-({[(4-tert-Butylphenyl)sulfonyl]amino}methyl)-N-(2-chloro-3-pyridinyl)benzamide] are “a (“a” reflects a ratio of RCC4/RCC-VHL+ ranging from 1 to 10)” and more than 20000 nM.
`Cc1ccccc1S(=O)(=O)NCc1ccc(C(=O)Nc2cccnc2)cc1` [Example 10, 4-((2-Methylphenylsulfonamido)methyl)-N-(pyridin-3-yl)benzamide]: the “Ratio (RCC4:RCC/VHL)” value in experiment [1] is recorded as “a (“a” reflects a ratio of RCC4/RCC-VHL+ ranging from 1 to 10)”. The molecule also came in with an IC50 in experiment [2] of 1000 to 20000 nM.
`O=C(Nc1cccnc1)c1ccc(CNS(=O)(=O)c2cccc([N+](=O)[O-])c2)cc1` [Example 25, 4-((3-Nitrophenylsulfonamido)methyl)-N-(pyridin-3-yl)benzamide]: the “Ratio (RCC4:RCC/VHL)” value in experiment [1] is given as “b (“b” reflects from 10 to 100)”. In experiment [2], this molecule returned an IC50 of 1000 to 20000 nM.
`O=C(Nc1cccnc1)c1ccc(CNS(=O)(=O)c2ccccc2Br)cc1` [Example 13, 4-((2-Bromophenylsulfonamido)methyl)-N-(pyridin-3-yl)benzamide]: the “Ratio (RCC4:RCC/VHL)” value in experiment [1] is “a (“a” reflects a ratio of RCC4/RCC-VHL+ ranging from 1 to 10)”. This molecule also had an IC50 in experiment [2] of 1000 to 20000 nM.
For `O=C(Nc1cccnc1)c1ccc(CNS(=O)(=O)c2ccc(-c3cn(Cc4ccccc4)nn3)cc2)cc1` [Example 102, 4-[({[4-(1-benzyl-1H-1,2,3-triazol-4-yl)phenyl]sulfonyl}amino)methyl]-N-(3-pyridinyl)benzamide], in experiment [1], the “Ratio (RCC4:RCC/VHL)” value is reported as “a (“a” reflects a ratio of RCC4/RCC-VHL+ ranging from 1 to 10)”. In experiment [2], this molecule gave an IC50 of more than 20000 nM.
